Assays:
[1] = system: S. aureus DSM 20231; assay: fitness (endpoint OD595 vs no drug) (fraction); higher = more growth
In short: (§1)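 Fitness is computed from the optical density at which cultures reach stationary phase, divided by the robust mean of no-drug control wells. Any value above 1 is set to 1. Cultures started at OD595 0.01 in 384-well plates with TSB, LB Lennox or CY at 37 °C, and OD595 was read every 30 min for 14 h against a first-reading background.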

[2] = system: S. aureus Newman; assay: as above
In short: as §1

[3] = system: B. subtilis 168; assay: Bliss interaction score (quartile over a dose matrix) (fitness difference); higher = more antagonism (negative = synergy)
In short: (§2)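 Quartiles of the Bliss score were taken over technical, biological and donor/recipient replicates. That score is observed fitness minus the product of the single-drug fitness values, which were inferred from combination data. Fitness itself is OD595 at entry into stationary phase divided by the plate's robust no-drug mean, with a cap at 1.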

[4] = system: S. aureus DSM 20231; assay: as above
In short: as §2

[5] = system: S. aureus Newman; assay: as above
In short: as §2

[6] = system: S. pneumoniae D39V; assay: as above
In short: as §2

[7] = system: S. pneumoniae D39V; assay: fitness (endpoint OD595 vs no drug) (fraction); higher = more growth
In short: as §1
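Throughout, for Bliss interaction score (quartile over a dose matrix): first quartile when negative (synergy) and third quartile when positive (antagonism).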

CCC[C@@H]1C[C@@H](C(=O)N[C@@H]([C@H]2O[C@H](SC)[C@H](O)[C@@H](O)[C@H]2O)[C@H](C)Cl)N(C)C1 [Clindamycin] + CCCCCCCCCC(=O)N[C@@H]1[C@H]([C@@H]([C@H](O[C@H]1OC2=C3C=C4C=C2OC5=C(C=C(C=C5)[C@H]([C@H]6C(=O)N[C@@H](C7=C(C(=CC(=C7)O)OC8[C@H]([C@H]([C@@H]([C@H](O8)CO)O)O)O)C9=C(C=CC(=C9)[C@H](C(=O)N6)NC(=O)[C@@H]4NC(=O)[C@@H]1C2=CC(=CC(=C2)OC2=C(C=CC(=C2)[C@H](C(=O)N[C@H](CC2=CC(=C(O3)C=C2)Cl)C(=O)N1)N)O)O)O)C(=O)O)O[C@H]1[C@@H]([C@H]([C@@H]([C@H](O1)CO)O)O)NC(=O)C)Cl)CO)O)O [Teicoplanin]
fitness, main component drawn
Conditions | partner 0.1562 µg/mL | partner 0.3125 µg/mL | partner 0.625 µg/mL
[1], first compound 0.125 µg/mL | 0.0489 | 0.0449 | 0.0526
[2], first compound 0.0312 µg/mL | 0.679 | 0.864 | 0.854
[2], first compound 0.0625 µg/mL | 0.448 | 0.431 | 0.483
[2], first compound 0.125 µg/mL | 0.0629 | 0.0636 | 0.0614

fitness, [2], one replicate, main component drawn
Conditions | first compound 0.0312 µg/mL | first compound 0.0625 µg/mL | first compound 0.125 µg/mL
partner 0.62 µg/mL | 0.86 | 0.74 | 0.358
partner 1.24 µg/mL | 0.938 | 0.839 | 0.307
partner 2.48 µg/mL | 0.755 | 0.726 | 0.154

main component drawn
Conditions | Bliss interaction score
[3] | -0.117
[4] | 0.0389
[5] | 0.137
[6] | -0.0604

CCC[C@@H]1C[C@@H](C(=O)N[C@@H]([C@H]2O[C@H](SC)[C@H](O)[C@@H](O)[C@H]2O)[C@H](C)Cl)N(C)C1 [Clindamycin] + CN[C@H](CC(C)C)C(=O)N[C@H]1C(=O)N[C@@H](CC(N)=O)C(=O)N[C@H]2C(=O)N[C@H]3C(=O)N[C@H](C(=O)N[C@H](C(=O)O)c4cc(O)cc(O)c4-c4cc3ccc4O)[C@H](O)c3ccc(c(Cl)c3)Oc3cc2cc(c3O[C@@H]2O[C@H](CO)[C@@H](O)[C@H](O)[C@H]2O[C@H]2C[C@](C)(N)[C@H](O)[C@H](C)O2)Oc2ccc(cc2Cl)[C@H]1O [Vancomycin]
Conditions | fitness
[1], first compound 0.125 µg/mL, partner 0.1875 µg/mL | 0.0642
[1], first compound 0.125 µg/mL, partner 0.375 µg/mL | 0.0657
[1], first compound 0.125 µg/mL, partner 0.75 µg/mL | 0.0731
[2], first compound 0.0312 µg/mL, partner 0.1875 µg/mL | 0.764
[2], first compound 0.0312 µg/mL, partner 0.375 µg/mL | 0.761
[2], first compound 0.0312 µg/mL, partner 0.75 µg/mL | 0.762
[7], first compound 0.0125 µg/mL, partner 0.125 µg/mL | 0.782
[7], first compound 0.0125 µg/mL, partner 0.25 µg/mL | 0.702
[7], first compound 0.0125 µg/mL, partner 0.5 µg/mL | 0.0792
[7], first compound 0.015 µg/mL, partner 0.03125 µg/mL | 0.89
[7], first compound 0.015 µg/mL, partner 0.0625 µg/mL | 0.844
[7], first compound 0.015 µg/mL, partner 0.125 µg/mL | 0.63
[7], first compound 0.025 µg/mL, partner 0.125 µg/mL | 0.544
[7], first compound 0.025 µg/mL, partner 0.25 µg/mL | 0.47
[7], first compound 0.025 µg/mL, partner 0.5 µg/mL | 0.0715
[7], first compound 0.03 µg/mL, partner 0.03125 µg/mL | 0.738
[7], first compound 0.03 µg/mL, partner 0.0625 µg/mL | 0.7
[7], first compound 0.03 µg/mL, partner 0.125 µg/mL | 0.526
[7], first compound 0.05 µg/mL, partner 0.125 µg/mL | 0.296
[7], first compound 0.05 µg/mL, partner 0.25 µg/mL | 0.237
[7], first compound 0.05 µg/mL, partner 0.5 µg/mL | 0.0635
[7], first compound 0.06 µg/mL, partner 0.03125 µg/mL | 0.501
[7], first compound 0.06 µg/mL, partner 0.0625 µg/mL | 0.47
[7], first compound 0.06 µg/mL, partner 0.125 µg/mL | 0.327

Conditions | Bliss interaction score
[3] | 0.0503
[4] | 0.0292
[5] | 0.135
[6] | 0.111

CCC[C@@H]1C[C@@H](C(=O)N[C@@H]([C@H]2O[C@H](SC)[C@H](O)[C@@H](O)[C@H]2O)[C@H](C)Cl)N(C)C1 [Clindamycin] + Cn1nnc(-c2ccc(-c3ccc(N4C[C@H](CO)OC4=O)cc3F)cn2)n1 [Tedizolid]
fitness
Conditions | partner 0.03125 µg/mL | partner 0.0625 µg/mL | partner 0.125 µg/mL | partner 0.25 µg/mL | partner 0.5 µg/mL
[1], first compound 0.0312 µg/mL | – | – | – | 0.314 | –
[1], first compound 0.0625 µg/mL | – | 0.0876 | 0.0753 | 0.0709 | –
[1], first compound 0.125 µg/mL | – | 0.0391 | 0.0406 | 0.0164 | –
[2], first compound 0.125 µg/mL | – | 0.0736 | 0.0453 | 0.0444 | –
[7], first compound 0.0125 µg/mL | – | – | 0.551 | 0.434 | 0.201
[7], first compound 0.015 µg/mL | 0.901 | 0.918 | 0.778 | – | –
[7], first compound 0.025 µg/mL | – | – | 0.375 | 0.33 | 0.149
[7], first compound 0.03 µg/mL | 0.781 | 0.814 | 0.721 | – | –
[7], first compound 0.05 µg/mL | – | – | 0.224 | 0.166 | 0.097
[7], first compound 0.06 µg/mL | 0.641 | 0.646 | 0.605 | – | –

Conditions | Bliss interaction score
[3] | 0.134
[4] | -0.024
[5] | -0.0925
[6] | 0.115

O=C(O[C@@H]1Cc2c(O)cc(O)cc2O[C@@H]1c1cc(O)c(O)c(O)c1)c1cc(O)c(O)c(O)c1 [EGCG] + CCCCCCCCCC(=O)N[C@@H]1[C@H]([C@@H]([C@H](O[C@H]1OC2=C3C=C4C=C2OC5=C(C=C(C=C5)[C@H]([C@H]6C(=O)N[C@@H](C7=C(C(=CC(=C7)O)OC8[C@H]([C@H]([C@@H]([C@H](O8)CO)O)O)O)C9=C(C=CC(=C9)[C@H](C(=O)N6)NC(=O)[C@@H]4NC(=O)[C@@H]1C2=CC(=CC(=C2)OC2=C(C=CC(=C2)[C@H](C(=O)N[C@H](CC2=CC(=C(O3)C=C2)Cl)C(=O)N1)N)O)O)O)C(=O)O)O[C@H]1[C@@H]([C@H]([C@@H]([C@H](O1)CO)O)O)NC(=O)C)Cl)CO)O)O [Teicoplanin]
fitness, main component drawn
Conditions | first compound 12.5 µg/mL | first compound 25 µg/mL | first compound 50 µg/mL
[1], partner 0.1562 µg/mL | 0.846 | 0.833 | 0.892
[1], partner 0.3125 µg/mL | 0.957 | 0.968 | 0.959
[1], partner 0.625 µg/mL | 0.935 | ≥ 1 | –
[2], partner 0.1562 µg/mL | 0.833 | 0.805 | 0.749
[2], partner 0.3125 µg/mL | 0.716 | 0.824 | 0.698
[2], partner 0.625 µg/mL | 0.819 | 0.806 | 0.823

fitness, [2], one replicate, main component drawn
Conditions | first compound 12.5 µg/mL | first compound 25 µg/mL | first compound 50 µg/mL
partner 0.62 µg/mL | 0.62 | 0.662 | 0.558
partner 1.24 µg/mL | 0.646 | 0.604 | 0.565
partner 2.48 µg/mL | 0.538 | 0.51 | 0.475

main component drawn
Conditions | Bliss interaction score
[3] | -0.096
[4] | 0.125
[5] | 0.0918
[6] | 0.0672

O=C(O[C@@H]1Cc2c(O)cc(O)cc2O[C@@H]1c1cc(O)c(O)c(O)c1)c1cc(O)c(O)c(O)c1 [EGCG] + CN[C@H](CC(C)C)C(=O)N[C@H]1C(=O)N[C@@H](CC(N)=O)C(=O)N[C@H]2C(=O)N[C@H]3C(=O)N[C@H](C(=O)N[C@H](C(=O)O)c4cc(O)cc(O)c4-c4cc3ccc4O)[C@H](O)c3ccc(c(Cl)c3)Oc3cc2cc(c3O[C@@H]2O[C@H](CO)[C@@H](O)[C@H](O)[C@H]2O[C@H]2C[C@](C)(N)[C@H](O)[C@H](C)O2)Oc2ccc(cc2Cl)[C@H]1O [Vancomycin]
fitness
Conditions | first compound 12.5 µg/mL | first compound 25 µg/mL | first compound 50 µg/mL
[1], partner 0.1875 µg/mL | 0.846 | 0.747 | 0.753
[1], partner 0.375 µg/mL | 0.842 | 0.781 | 0.836
[1], partner 0.75 µg/mL | 0.865 | 0.885 | 0.738
[2], partner 0.1875 µg/mL | 0.754 | 0.782 | –
[2], partner 0.375 µg/mL | 0.757 | 0.766 | 0.846
[2], partner 0.75 µg/mL | 0.789 | 0.776 | 0.778
[7], partner 0.03125 µg/mL | 0.907 | 0.913 | 0.931
[7], partner 0.0625 µg/mL | 0.887 | 0.901 | 0.959
[7], partner 0.125 µg/mL | 0.889 | 0.89 | 0.948
[7], partner 0.25 µg/mL | 0.317 | – | 0.397
[7], partner 0.5 µg/mL | 0.0543 | 0.0794 | 0.143

Conditions | Bliss interaction score
[3] | 0.0425
[4] | 0.0881
[5] | -0.0625
[6] | 0.0478

O=C(O[C@@H]1Cc2c(O)cc(O)cc2O[C@@H]1c1cc(O)c(O)c(O)c1)c1cc(O)c(O)c(O)c1 [EGCG] + Cn1nnc(-c2ccc(-c3ccc(N4C[C@H](CO)OC4=O)cc3F)cn2)n1 [Tedizolid]
fitness
Conditions | partner 0.03125 µg/mL | partner 0.0625 µg/mL | partner 0.125 µg/mL | partner 0.25 µg/mL | partner 0.5 µg/mL
[1], first compound 12.5 µg/mL | – | 0.865 | 0.734 | 0.401 | –
[1], first compound 25 µg/mL | – | 0.762 | 0.783 | 0.569 | –
[1], first compound 50 µg/mL | – | 0.805 | 0.714 | 0.326 | –
[2], first compound 12.5 µg/mL | – | 0.735 | 0.673 | 0.329 | –
[2], first compound 25 µg/mL | – | 0.783 | 0.679 | – | –
[2], first compound 50 µg/mL | – | 0.745 | 0.653 | – | –
[7], first compound 12.5 µg/mL | 0.913 | 0.925 | – | 0.308 | 0.194
[7], first compound 25 µg/mL | 0.974 | 0.94 | 0.718 | 0.328 | 0.107
[7], first compound 50 µg/mL | 0.993 | 0.959 | 0.791 | – | 0.262

Conditions | Bliss interaction score
[3] | 0.0863
[4] | 0.11
[5] | -0.0709
[6] | -0.0687

Reference: the supplement of paper PMC10627819
